Measured values from ChEMBL document CHEMBL1151995, “Evaluation of tea polyphenols as anti-HIV agents” (Bioorg Med Chem Lett, 1996).
Converted amounts (≈) assume the structure as drawn.

What was measured:
[1] = Therapeutic index - IC50/EC50.; details: read-out: Therapeutic index
[2] = test system: Human immunodeficiency virus 1; assay: Inhibition of HIV-1 replication in H9 (human lymphoma) cells.; type: functional, organism-based; details: Human immunodeficiency virus 1, H9
H9 = assay: Inhibition of uninfected H9 lymphocytic cell growth; type: functional, cell-based; details: Homo sapiens
[3] = test system: Human immunodeficiency virus 1; assay: Inhibition of HIV-1 replication in H9 (human lymphoma) cells; No suppression.; type: functional, organism-based

SMILES	selectivity ratio [1]	EC50 [2]	IC50 (H9)	EC50 [3]
O=C(O[C@@H]1Cc2c(O)cc(O)cc2OC1c1cc(O)c(O)c(O)c1-c1c(C2Oc3cc(O)cc(O)c3C[C@H]2OC(=O)c2cc(O)c(O)c(O)c2)cc(O)c(O)c1O)c1cc(O)c(O)c(O)c1 (single isomer, unassigned)	5	8 µg/mL (≈ 8.75 µM)	40 µg/mL (≈ 43.7 µM)	–
O=C(O[C@@H]1Cc2c(O)cc(O)cc2O[C@@H]1c1cc(O)c(O)cc1-c1c([C@H]2Oc3cc(O)cc(O)c3C[C@H]2OC(=O)c2cc(O)c(O)c(O)c2)cc(O)c(O)c1O)c1cc(O)c(O)c(O)c1	–	–	50 µg/mL (≈ 55.6 µM)	No effect
O=C(O[C@H](Cc1c(O)cc(O)cc1O)[C@H](c1cc(O)c(O)c(O)c1)c1c(O)cc(O)c2c1O[C@H](c1cc(O)c(O)c(O)c1)[C@H](OC(=O)c1cc(O)c(O)c(O)c1)C2)c1cc(O)c(O)c(O)c1	–	–	9 µg/mL (≈ 9.82 µM)	No effect
O=C(Oc1c(O)cc([C@H]2Oc3cc(O)cc(O)c3C[C@H]2OC(=O)c2cc(O)c(O)c(O)c2)cc1O)c1cc(O)c(O)c(O)c1	6.2	6.5 µg/mL (≈ 10.6 µM)	40 µg/mL (≈ 65.5 µM)	–
O=C(O[C@@H]1Cc2c(O)cc3c(c2O[C@@H]1c1cc(O)c(O)c(O)c1)C1(O)C(=O)O[C@H]([C@@H](O)CO)C1(O)O3)c1cc(O)c(O)c(O)c1 (stereo partly specified)	4	10 µg/mL (≈ 15.8 µM)	40 µg/mL (≈ 63.2 µM)	–
O=C(O[C@@H]1Cc2c(O)cc(O)c([C@H]3c4c(O)cc(O)cc4O[C@H](c4cc(O)c(O)c(O)c4)[C@@H]3O)c2O[C@@H]1c1cc(O)c(O)c(O)c1)c1cc(O)c(O)c(O)c1	1.9	15 µg/mL (≈ 19.7 µM)	28 µg/mL (≈ 36.7 µM)	–
Oc1ccc([C@H]2Oc3cc(O)cc(O)c3C[C@H]2O)cc1 [EPIAFZELECHIN (2R,3R)(-)]	1.4	70 µg/mL (≈ 255 µM)	100 µg/mL (≈ 365 µM)	–
Oc1cc(O)c2c(c1)O[C@H](c1cc(O)c(O)c(O)c1)[C@@H](O)[C@@H]2c1c(O)cc(O)c2c1O[C@H](c1cc(O)c(O)c(O)c1)[C@H](O)C2	1.5	12 µg/mL (≈ 19.7 µM)	18 µg/mL (≈ 29.5 µM)	–
Oc1cc(O)c2c(c1)O[C@H](c1cc(O)c(O)c(O)c1)[C@H](O)[C@H]2c1c(O)cc(O)c2c1O[C@H](c1cc(O)c(O)c(O)c1)[C@H](O)C2	1.2	15 µg/mL (≈ 24.6 µM)	18 µg/mL (≈ 29.5 µM)	–
O=C(O[C@H](Cc1c(O)cc(O)cc1O)[C@@H](c1cc(O)c(O)c(O)c1)c1c(O)cc2c(c1O)C[C@@H](OC(=O)c1cc(O)c(O)c(O)c1)[C@@H](c1cc(O)c(O)c(O)c1)O2)c1cc(O)c(O)c(O)c1	2.5	14 µg/mL (≈ 15.3 µM)	35 µg/mL (≈ 38.2 µM)	–
O=c1c(O)cc([C@H]2Oc3cc(O)cc(O)c3C[C@H]2O)cc2c([C@H]3Oc4cc(O)cc(O)c4C[C@H]3O)cc(O)c(O)c12 [THEAFLAVIN]	–	–	48 µg/mL (≈ 85 µM)	No effect
O=C(O[C@@H]1[C@@H](c2c(O)cc(O)c3c2O[C@H](c2cc(O)c(O)c(O)c2)[C@H](OC(=O)c2cc(O)c(O)c(O)c2)C3)c2c(O)cc(O)cc2O[C@@H]1c1cc(O)c(O)c(O)c1)c1cc(O)c(O)c(O)c1	–	–	40 µg/mL (≈ 43.7 µM)	No effect
O=C(O[C@@H]1[C@@H](c2c(O)cc3c(c2O)C[C@@H](OC(=O)c2cc(O)c(O)c(O)c2)[C@@H](c2cc(O)c(O)c(O)c2)O3)c2c(O)cc(O)cc2O[C@@H]1c1cc(O)c(O)c(O)c1)c1cc(O)c(O)c(O)c1	2	15 µg/mL (≈ 16.4 µM)	30 µg/mL (≈ 32.8 µM)	–
COc1c(O)cc(C(=O)O[C@@H]2Cc3c(O)cc(O)cc3O[C@@H]2c2ccc(O)c(O)c2)cc1O	–	–	50 µg/mL (≈ 110 µM)	No effect
O=C(O[C@@H]1Cc2c(cc(O)c(Cc3c(O)cc(O)c4c3O[C@H](c3cc(O)c(O)c(O)c3)[C@H](OC(=O)c3cc(O)c(O)c(O)c3)C4)c2O)O[C@@H]1c1cc(O)c(O)c(O)c1)c1cc(O)c(O)c(O)c1	1.6	25 µg/mL (≈ 26.9 µM)	40 µg/mL (≈ 43.1 µM)	–
O=C(O[C@H]1Cc2c(O)cc3c(c2O[C@H]1c1cc(O)c(O)c(O)c1)[C@H]1c2c(O)cc(O)cc2O[C@@](c2cc(O)c(O)c(O)c2)(O3)[C@@H]1O)c1cc(O)c(O)c(O)c1	–	–	40 µg/mL (≈ 52.6 µM)	No effect
O=C(O[C@@H]1Cc2c(O)cc(O)cc2O[C@@H]1c1cc(O)c(O)c2c1C1C([C@H]3Oc4cc(O)cc(O)c4C[C@H]3O)=CC(=O)C1(O)O2)c1cc(O)c(O)c(O)c1 (stereo partly specified)	1.9	25 µg/mL (≈ 34.1 µM)	48 µg/mL (≈ 65.5 µM)	–
O=C(O[C@@H]1Cc2c(cc(O)c(Cc3c(O)cc4c(c3O)C[C@@H](OC(=O)c3cc(O)c(O)c(O)c3)[C@@H](c3cc(O)c(O)c(O)c3)O4)c2O)O[C@@H]1c1cc(O)c(O)c(O)c1)c1cc(O)c(O)c(O)c1	3.9	9 µg/mL (≈ 9.69 µM)	35 µg/mL (≈ 37.7 µM)	–
O=C(O[C@@H]1Cc2c(O)cc(O)cc2O[C@@H]1c1cc(O)c(O)c(O)c1-c1c([C@H]2Oc3cc(O)cc(O)c3C[C@H]2OC(=O)c2cc(O)c(O)c(O)c2)cc(O)c(O)c1O)c1cc(O)c(O)c(O)c1 [THEASINENSIN A]	0.95	19 µg/mL (≈ 20.8 µM)	18 µg/mL (≈ 19.7 µM)	–

SMILES	selectivity ratio [1]	EC50 [2]	IC50 (H9)	EC50 [3]
O=C(O[C@@H]1Cc2c(O)cc(O)cc2O[C@@H]1c1cc(O)c(O)c2c(=O)c(O)cc([C@H]3Oc4cc(O)cc(O)c4C[C@H]3O)cc12)c1cc(O)c(O)c(O)c1	–	–	48 µg/mL (≈ 67 µM)	No effect
O=C1c2c(O)cc(O)cc2O[C@H](c2ccc(O)c(O)c2)[C@H]1O [(+)-TAXIFOLIN]	1	9.8 µg/mL (≈ 32.2 µM)	9.8 µg/mL (≈ 32.2 µM)	–
O=C(O[C@@H]1Cc2c(O)cc(O)cc2O[C@@H]1c1cc(O)c(=O)c2c(O)c(O)cc([C@H]3Oc4cc(O)cc(O)c4C[C@H]3OC(=O)c3cc(O)c(O)c(O)c3)c2c1)c1cc(O)c(O)c(O)c1 [THEAFLAVIN DIGALLATE]	–	–	48 µg/mL (≈ 55.3 µM)	No effect
O=C(/C=C/c1ccc(O)cc1)O[C@@H]1Cc2c(O)cc(O)cc2O[C@@H]1c1cc(O)c(O)c(O)c1	4.4	8 µg/mL (≈ 17.7 µM)	35 µg/mL (≈ 77.4 µM)	–
Oc1cc(O)c2c(c1)O[C@H](c1cc(O)c(O)c(O)c1)[C@H](O)C2 [EPIGALLOCATECHIN]	–	–	1.8 µg/mL (≈ 5.88 µM)	No effect
O=C(O[C@@H]1Cc2c(O)cc(O)cc2O[C@@H]1c1ccc(O)cc1)c1cc(O)c(O)c(O)c1	–	–	50 µg/mL (≈ 117 µM)	Not Active
O=C(O[C@H](Cc1c(O)cc(O)cc1O)[C@@H](c1cc(O)c(O)c(O)c1)c1c(O)cc(O)c2c1O[C@H](c1cc(O)c(O)c(O)c1)[C@H](OC(=O)c1cc(O)c(O)c(O)c1)C2)c1cc(O)c(O)c(O)c1	–	–	8 µg/mL (≈ 8.73 µM)	No effect
O=C(O[C@@H]1Cc2c(O)cc(O)c(Cc3c(O)cc(O)c4c3O[C@H](c3cc(O)c(O)c(O)c3)[C@H](OC(=O)c3cc(O)c(O)c(O)c3)C4)c2O[C@@H]1c1cc(O)c(O)c(O)c1)c1cc(O)c(O)c(O)c1	–	–	45 µg/mL (≈ 48.5 µM)	No effect
O=C(O[C@@H]1Cc2c(O)cc(O)cc2O[C@@H]1c1cc(O)c(=O)c2c(O)c(O)c(O)cc2c1)c1cc(O)c(O)c(O)c1	4.5	5.5 µg/mL (≈ 9.96 µM)	25 µg/mL (≈ 45.3 µM)	–
O=C(O[C@@H]1Cc2c(O)cc(O)c([C@@H]3c4c(O)cc(O)cc4O[C@H](c4cc(O)c(O)c(O)c4)[C@H]3O)c2O[C@@H]1c1cc(O)c(O)c(O)c1)c1cc(O)c(O)c(O)c1	–	–	9 µg/mL (≈ 11.8 µM)	No effect
Oc1cc(O)c2c(c1)O[C@H](c1cc(O)c(O)c(O)c1-c1c([C@H]3Oc4cc(O)cc(O)c4C[C@H]3O)cc(O)c(O)c1O)[C@H](O)C2	1.6	6 µg/mL (≈ 9.83 µM)	9.5 µg/mL (≈ 15.6 µM)	–
O=C(O[C@@H]1Cc2c(O)cc(O)cc2O[C@@H]1c1cc(O)c(O)c(O)c1-c1c([C@H]2Oc3cc(O)cc(O)c3C[C@H]2O)cc(O)c(O)c1O)c1cc(O)c(O)c(O)c1 [2',2'-BISEPIGALLOCATECHIN MONOGALLATE]	–	–	9.5 µg/mL (≈ 12.5 µM)	No effect
COc1cc(C(=O)O[C@@H]2Cc3c(O)cc(O)cc3O[C@@H]2c2ccc(O)c(O)c2)cc(O)c1O	–	–	50 µg/mL (≈ 110 µM)	No effect
O=C(Oc1cc([C@H]2Oc3cc(O)cc(O)c3C[C@H]2OC(=O)c2cc(O)c(O)c(O)c2)cc(O)c1O)c1cc(O)c(O)c(O)c1	6.2	6.5 µg/mL (≈ 10.6 µM)	40 µg/mL (≈ 65.5 µM)	–
O=C(Oc1cc(O)cc2c1C[C@@H](OC(=O)c1cc(O)c(O)c(O)c1)[C@@H](c1cc(O)c(O)c(O)c1)O2)c1cc(O)c(O)c(O)c1 [EPIGALLOCATECHIN 3,5-DIGALLATE]	3.6	5.5 µg/mL (≈ 9.01 µM)	20 µg/mL (≈ 32.8 µM)	–
O=C1O[C@H]([C@@H](O)CO)C2(O)Oc3cc(O)c4c(c3C12O)O[C@H](c1cc(O)c(O)c(O)c1)[C@H](O)C4 (stereo partly specified)	9.5	4 µg/mL (≈ 8.33 µM)	38 µg/mL (≈ 79.1 µM)	–
O=C(O[C@@H]1Cc2c(O)cc(O)cc2O[C@@H]1c1cc(O)c(O)c(O)c1)c1cc(O)c(O)c(O)c1 [EPIGALOCATECHIN GALLATE]	1.1	7 µg/mL (≈ 15.3 µM)	8 µg/mL (≈ 17.5 µM)	–
Oc1cc(O)c2c(c1)OC(c1cc(O)c(O)c(O)c1-c1c(C3Oc4cc(O)cc(O)c4C[C@H]3O)cc(O)c(O)c1O)[C@H](O)C2 (single isomer, unassigned)	2	10 µg/mL (≈ 16.4 µM)	20 µg/mL (≈ 32.8 µM)	–
